The text below walks through data of US20180057505A1, “BICYCLIC HETEROARYL COMPOUNDS USEFUL AS INHIBITORS OF THE PAR-2 SIGNALING PATHWAY” (VERTEX PHARMACEUTICALS INCORPORATED, priority 2015, published 2018).

Format in all cases: cell-based
Assay [1] addresses T1, PAR2 (HT-29 cells) (Homo sapiens, UniProt P55085).
T1 construct: host or cells: HT-29
T1 sequence (P55085 26-397): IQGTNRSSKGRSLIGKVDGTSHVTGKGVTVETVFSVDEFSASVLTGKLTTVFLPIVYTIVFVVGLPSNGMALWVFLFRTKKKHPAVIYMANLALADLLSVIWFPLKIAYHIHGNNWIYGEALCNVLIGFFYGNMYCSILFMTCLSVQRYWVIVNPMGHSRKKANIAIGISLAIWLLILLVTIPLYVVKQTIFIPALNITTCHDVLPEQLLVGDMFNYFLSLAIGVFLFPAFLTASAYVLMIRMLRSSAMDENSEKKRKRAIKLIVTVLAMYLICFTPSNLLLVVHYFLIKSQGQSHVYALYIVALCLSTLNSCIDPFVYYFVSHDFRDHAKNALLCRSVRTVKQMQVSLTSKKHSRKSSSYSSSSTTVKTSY
Nature of the assay: Ca FLIPR TETRA assay, ANTAGONIST mode, activator 3.1 U/mL trypsin. The conditions noted are these: HT-29 cells; activator 3.1 U/mL trypsin; Method A: maximal concentration of antagonist 0.1, 1 or 2 μM. In short, it runs like this: (§1)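 Ca2+ flux by FLIPR Tetra in HT-29 cells after 30 min r.t. compound preincubation, followed by stimulation with SLIGKV 8 μM, thrombin 1 U/mL, trypsin 3.1 U/mL or UTP 0.6 μM (final). Cells were dye-loaded with calcium 5 beforehand; compound-only responses were also read.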

Assay [2] deals with T1, PAR2 (HT-29 cells). The assay can be described thus: Ca FLIPR TETRA assay, ANTAGONIST mode, activator 8 μM SLIGKV. Conditions: HT-29 cells; activator 8 μM SLIGKV; Method A: maximal concentration of antagonist 0.1, 1 or 2 μM. Summed up:
as §1

The subject of assay [3] is Thrombin-stimulated Ca2+ response in HT-29 cells. The assay can be described thus: Ca FLIPR TETRA assay, ANTAGONIST mode, activator 1 U/mL Thrombin. The conditions noted are these: HT-29 cells, activator 1 U/mL Thrombin. In short, it runs like this:
as §1

The test system of assay [4] is UTP-stimulated Ca2+ response in HT-29 cells. Nature of the assay: Ca FLIPR TETRA assay, ANTAGONIST mode, activator 0.6 μM UTP. Conditions: HT-29 cells, activator 0.6 μM UTP. In short, it runs like this: as §1

Broadly, the IC50 is the concentration that gives 50% inhibition.

As for `CC1(C)CCC(c2cc(C(C)(C)C)c3oc(C(=O)N4CCN(C(=O)CCC(C)(C)C(=O)O)CC4(C)C)cc3n2)CC1` [Example I-354], the IC50 on PAR2 (HT-29 cells) [1] was 0.0004 µM; at PAR2 (HT-29 cells) [2], 0.0003 µM; in assay [3] (Homo sapiens), greater than 2 µM; in assay [4] (Homo sapiens) it was greater than 2 µM.
`Cc1ccc(N2CCN(C(=O)c3cc4nc(-c5ccc(Cl)c(F)c5)cc(C(C)(C)C)c4o3)C(C)(C)C2=O)nn1` [Example I-355]: the IC50 at PAR2 (HT-29 cells) [1] is 0.016 µM; at PAR2 (HT-29 cells) [2], 0.014 µM; in assay [3] (Homo sapiens), greater than 2 µM; in assay [4] (Homo sapiens), greater than 2 µM.
As to `Cn1cc(N2CCN(C(=O)c3cc4nc(-c5ccc(Cl)c(F)c5)cc(C(C)(C)C)c4o3)C(C)(C)C2=O)nn1` [Example I-356], the half-inhibitory concentration (IC50) at PAR2 (HT-29 cells) [1] is 0.0141 µM; at PAR2 (HT-29 cells) [2], 0.012 µM; in assay [3] (Homo sapiens), greater than 2 µM; in assay [4] (Homo sapiens), greater than 2 µM.
Regarding `CC(C)(C)c1cc(-c2ccc(Cl)c(F)c2)nc2cc(C(=O)N3CCN(c4cccnn4)C(=O)C3(C)C)oc12` [Example I-357], the IC50 on PAR2 (HT-29 cells) [1] is 0.01 µM; on PAR2 (HT-29 cells) [2], 0.0083 µM; in assay [3] (Homo sapiens) it was greater than 2 µM; in assay [4] (Homo sapiens), greater than 2 µM.
As for `Cc1nccnc1N1CCN(C(=O)c2cc3nc(-c4ccc(Cl)c(F)c4)cc(C(C)(C)C)c3o2)C(C)(C)C1=O` [Example I-359], the IC50 on PAR2 (HT-29 cells) [1] is 0.043 µM; at PAR2 (HT-29 cells) [2] it was 0.037 µM; in assay [3] (Homo sapiens), greater than 2 µM; in assay [4] (Homo sapiens) it was greater than 2 µM.
On to `CC(C)(C)c1cc(-c2ccc(Cl)c(F)c2)nc2cc(C(=O)N3CCN(c4cnccn4)C(=O)C3(C)C)oc12` [Example I-360], for which the IC50 is 0.0037 µM at PAR2 (HT-29 cells) [1], 0.0024 µM at PAR2 (HT-29 cells) [2], greater than 2 µM in assay [3] (Homo sapiens) and greater than 2 µM in assay [4] (Homo sapiens).
With `CC(C)(C)c1cc(-c2ccc(Cl)c(F)c2)nc2cc(C(=O)N3CCN(c4ncccn4)C(=O)C3(C)C)oc12` [Example I-361], the IC50 at PAR2 (HT-29 cells) [1] is 0.0046 µM; on PAR2 (HT-29 cells) [2], 0.0028 µM; in assay [3] (Homo sapiens), greater than 2 µM; in assay [4] (Homo sapiens), greater than 2 µM.
For the compound `CC(C)(C)c1cc(-c2ccc(Cl)c(F)c2)nc2cc(C(=O)N3CCN(C(=O)C4CC5(CC(C(=O)O)C5)C4)C(=O)C3(C)C)oc12` (stereo not shown) [Example I-362], the IC50 at PAR2 (HT-29 cells) [1] is 0.001 µM; on PAR2 (HT-29 cells) [2], 0.0007 µM; in assay [3], greater than 1.1 µM; in assay [4], greater than 1.1 µM.
Take `CC(C)(C)c1cc(-c2ccc(Cl)c(F)c2)nc2cc(C(=O)N3CCc4cnc(CC(=O)O)nc4C3(C)C)oc12` [Example I-363]: the IC50 at PAR2 (HT-29 cells) [1] was 0.0009 µM; at PAR2 (HT-29 cells) [2] it was 0.0006 µM; in assay [3] (Homo sapiens), greater than 2 µM; in assay [4] (Homo sapiens) it was greater than 2 µM.
As to `CC1(C)CCC(c2cc(C(C)(C)C)c3oc(C(=O)N4CCN(C(=O)C5CC6(CC(C(=O)O)C6)C5)CC4(C)C)cc3n2)CC1` (stereo not shown) [Example I-364], the IC50 on PAR2 (HT-29 cells) [1] is 0.0012 µM; on PAR2 (HT-29 cells) [2], 0.0012 µM; in assay [3] (Homo sapiens), greater than 2 µM; in assay [4] (Homo sapiens) it was 1.7 µM.
For the compound `CC(C)(C)c1cc(-c2ccc(Cl)c(F)c2)nc2cc(C(=O)N3CCN(c4nc(C(=O)O)ccc4Cl)CC3(C)C)oc12` [Example I-365], the 50% inhibitory concentration (IC50) at PAR2 (HT-29 cells) [1] is 0.0003 µM; on PAR2 (HT-29 cells) [2], 0.0002 µM; in assay [3] (Homo sapiens) it was greater than 2 µM; in assay [4] (Homo sapiens), greater than 2 µM.
On to `CC(C)(CCC(=O)N1CCN(C(=O)c2cc3nc(-c4ccc(Cl)cc4)cc(C(C)(C)C)c3o2)C(C)(C)C1)C(=O)O` [Example I-366], for which the IC50 was 0.0011 µM on PAR2 (HT-29 cells) [1], 0.0008 µM at PAR2 (HT-29 cells) [2], greater than 2 µM in assay [3] (Homo sapiens) and greater than 2 µM in assay [4] (Homo sapiens).
On to `CC(C)(CCC(=O)N1CCN(C(=O)c2cc3nc(-c4ccc(Cl)c(F)c4)cc(C(C)(C)C)c3o2)C(C)(C)C1)C(=O)O` [Example I-367], for which the IC50 is 0.0004 µM on PAR2 (HT-29 cells) [1], 0.0002 µM on PAR2 (HT-29 cells) [2], greater than 1.55 µM in assay [3] (Homo sapiens) and greater than 1.55 µM in assay [4] (Homo sapiens).
Regarding `CC(C)(C)c1cc(-c2ccc(Cl)cc2)nc2cc(C(=O)N3CCN(c4ncc(C(=O)O)cn4)C(=O)C3(C)C)oc12` [Example I-369], the IC50 at PAR2 (HT-29 cells) [1] was 0.019 µM; at PAR2 (HT-29 cells) [2] it was 0.012 µM; in assay [3] (Homo sapiens), greater than 2 µM; in assay [4] (Homo sapiens), greater than 2 µM.
Consider `CC(C)(C)c1cc(-c2ccc(Cl)cc2)nc2cc(C(=O)N3CCN(c4ncc(F)cn4)CC3(C)C)oc12` [Example I-370], for which the IC50 on PAR2 (HT-29 cells) [1] was 0.017 µM; at PAR2 (HT-29 cells) [2] it was 0.017 µM; in assay [3] (Homo sapiens), greater than 2 µM; in assay [4] (Homo sapiens), greater than 2 µM.
Turning to `Cc1cnc(N2CCN(C(=O)c3cc4nc(-c5ccc(Cl)c(F)c5)cc(C(C)(C)C)c4o3)C(C)(C)C2=O)nc1` [Example I-371], the IC50 is 0.0052 µM at PAR2 (HT-29 cells) [1], 0.0052 µM at PAR2 (HT-29 cells) [2], greater than 2 µM in assay [3] and greater than 2 µM in assay [4].
For `CC(C)(C)c1cc(-c2ccc(Cl)c(F)c2)nc2cc(C(=O)N3CCN(C(=O)CC4(C(=O)O)CCC4)CC3(C)C)oc12` [Example I-372], the IC50 was 0.0003 µM on PAR2 (HT-29 cells) [1], 0.0002 µM on PAR2 (HT-29 cells) [2], greater than 2 µM in assay [3] (Homo sapiens) and greater than 2 µM in assay [4] (Homo sapiens).
As for `CC(C)[C@@H](CC(=O)O)C(=O)N1CCN(C(=O)c2cc3nc(-c4ccc(Cl)c(F)c4)cc(C(C)(C)C)c3o2)C(C)(C)C1` [Example I-373], the IC50 was 0.0008 µM at PAR2 (HT-29 cells) [1], 0.0006 µM at PAR2 (HT-29 cells) [2], greater than 1.1 µM in assay [3] (Homo sapiens) and greater than 1.1 µM in assay [4] (Homo sapiens).
Consider `CC(C)[C@H](CC(=O)O)C(=O)N1CCN(C(=O)c2cc3nc(-c4ccc(Cl)c(F)c4)cc(C(C)(C)C)c3o2)C(C)(C)C1` [Example I-374], for which the IC50 is 0.0041 µM on PAR2 (HT-29 cells) [1], 0.0036 µM at PAR2 (HT-29 cells) [2], greater than 2 µM in assay [3] (Homo sapiens) and greater than 2 µM in assay [4] (Homo sapiens).
In the case of `CC(C)(C)c1cc(-c2ccc(Cl)c(F)c2)nc2cc(C(=O)N3CCN(C(=O)[C@@H]4CCC[C@H](C(=O)O)C4)CC3(C)C)oc12` [Example I-375], the IC50 at PAR2 (HT-29 cells) [1] was 0.0007 µM; at PAR2 (HT-29 cells) [2], 0.0003 µM; in assay [3] (Homo sapiens), greater than 2 µM; in assay [4] (Homo sapiens), greater than 2 µM.
With `CC(C)(C)c1cc(-c2ccc(Cl)c(F)c2)nc2cc(C(=O)N3CCN(C(=O)CCP(C)(=O)O)CC3(C)C)oc12` [Example I-376], the IC50 is 0.29 µM on PAR2 (HT-29 cells) [1], 0.28 µM on PAR2 (HT-29 cells) [2], greater than 2 µM in assay [3] (Homo sapiens) and greater than 2 µM in assay [4] (Homo sapiens).
For the compound `CC1(C)CCC(c2cc(C(C)(C)C)c3oc(C(=O)N4CCN(C(=O)CC[C@H](N)C(=O)O)CC4(C)C)cc3n2)CC1` [Example I-377], the IC50 was 0.47 µM on PAR2 (HT-29 cells) [1], 0.4 µM on PAR2 (HT-29 cells) [2], greater than 2 µM in assay [3] (Homo sapiens) and greater than 2 µM in assay [4] (Homo sapiens).
For the compound `CC1(C)CCC(c2cc(C(C)(C)C)c3oc(C(=O)N4CCN(C(=O)CCCC(=O)O)CC4(C)C)cc3n2)CC1` [Example I-378], the IC50 on PAR2 (HT-29 cells) [1] was 0.0035 µM; at PAR2 (HT-29 cells) [2] it was 0.0017 µM; in assay [3] (Homo sapiens) it was greater than 2 µM; in assay [4] (Homo sapiens), greater than 2 µM.
For the compound `CC1(C)CCC(c2cc(C(C)(C)C)c3oc(C(=O)N4CCN(C(=O)c5ccc(C(=O)O)cn5)CC4(C)C)cc3n2)CC1` [Example I-379], the IC50 was 0.056 µM on PAR2 (HT-29 cells) [1], 0.026 µM at PAR2 (HT-29 cells) [2], greater than 2 µM in assay [3] (Homo sapiens) and greater than 2 µM in assay [4] (Homo sapiens).
Regarding `CC1(C)CCC(c2cc(C(C)(C)C)c3oc(C(=O)N4CCN(C(=O)c5ccc(C(=O)O)nc5)CC4(C)C)cc3n2)CC1` [Example I-380], the IC50 was 0.24 µM on PAR2 (HT-29 cells) [1], 0.21 µM at PAR2 (HT-29 cells) [2], greater than 2 µM in assay [3] (Homo sapiens) and greater than 2 µM in assay [4] (Homo sapiens).
